# According to ChEMBL document CHEMBL1158420, “Synthesis, spectral, crystal and antimicrobial studies of biologically potent oxime ethers of nitrogen, oxygen and sulfur heterocycles” (2009):
# Key:
# Pseudomonas aeruginosa [1] = assay: Ratio of MIC for drug to MIC for Ciprofloxacin against Pseudomonas aeruginosa; format: functional
# Rhizopus [2] = assay: Antifungal activity against Rhizopus sp. by twofold dilution method; format: functional; details: Rhizopus; read-out: MIC
# Staphylococcus aureus [3] = assay: Ratio of MIC for drug to MIC for Ciprofloxacin against Staphylococcus aureus; format: functional
# Pseudomonas aeruginosa [4] = assay: Antibacterial activity against Pseudomonas aeruginosa by twofold dilution method; format: functional; details: Pseudomonas aeruginosa; read-out: MIC
# [5] = system: Salmonella enterica subsp. enterica; assay: Ratio of MIC for drug to MIC for Ciprofloxacin against Salmonella typhi; format: functional, Salmonella enterica subsp. enterica serovar Typhi
# Candida albicans [6] = assay: Antifungal activity against Candida albicans by twofold dilution method; format: functional; details: Candida albicans; read-out: MIC
# Candida = assay: Antifungal activity against Candida 51 by twofold dilution method; format: functional; details: Candida, 51; read-out: MIC
# [7] = system: Salmonella enterica subsp. enterica; assay: Antibacterial activity against Salmonella typhi by twofold dilution method; format: functional, Salmonella enterica subsp. enterica serovar Typhi; details: Salmonella enterica; read-out: MIC
# Escherichia coli [8] = assay: Ratio of MIC for drug to MIC for Ciprofloxacin against Escherichia coli; format: functional
# Aspergillus flavus [9] = assay: Antifungal activity against Aspergillus flavus by twofold dilution method; format: functional; details: Aspergillus flavus; read-out: MIC
# Escherichia coli [10] = assay: Antibacterial activity against Escherichia coli by twofold dilution method; format: functional; details: Escherichia coli; read-out: MIC
# Cryptococcus neoformans [11] = assay: Antifungal activity against Cryptococcus neoformans by twofold dilution method; format: functional; details: Cryptococcus neoformans; read-out: MIC
# Staphylococcus aureus [12] = assay: Antibacterial activity against Staphylococcus aureus by twofold dilution method; format: functional; details: Staphylococcus aureus; read-out: MIC
# Aspergillus niger [13] = assay: Antifungal activity against Aspergillus niger by twofold dilution method; format: functional; details: Aspergillus niger; read-out: MIC
# Aspergillus niger [14] = assay: Ratio of MIC for drug to MIC for Amphotericin B against Aspergillus niger; format: functional
# Candida albicans [15] = assay: Ratio of MIC for drug to MIC for Amphotericin B against Candida albicans; format: functional
# Cryptococcus neoformans [16] = assay: Ratio of MIC for drug to MIC for Amphotericin B against Cryptococcus neoformans; format: functional
# Aspergillus flavus [17] = assay: Ratio of MIC for drug to MIC for Amphotericin B against Aspergillus flavus; format: functional
# Rhizopus [18] = assay: Ratio of MIC for drug to MIC for Amphotericin B against Rhizopus sp.; format: functional
Structure (SMILES),Ratio (Pseudomonas aeruginosa [1]),MIC (Rhizopus [2]) [µg/mL],Ratio (Staphylococcus aureus [3]),MIC (Pseudomonas aeruginosa [4]) [µg/mL],Ratio [5],MIC (Candida albicans [6]) [µg/mL],MIC (Candida) [µg/mL],MIC [7] [µg/mL],Ratio (Escherichia coli [8]),MIC (Aspergillus flavus [9]) [µg/mL],MIC (Escherichia coli [10]) [µg/mL],MIC (Cryptococcus neoformans [11]) [µg/mL],MIC (Staphylococcus aureus [12]) [µg/mL],MIC (Aspergillus niger [13]) [µg/mL],Ratio (Aspergillus niger [14]),Ratio (Candida albicans [15]),Ratio (Cryptococcus neoformans [16]),Ratio (Aspergillus flavus [17]),Ratio (Rhizopus [18])
CC1C(=NOCc2ccccc2)C(C)C(c2ccc(Cl)cc2)NC1c1ccc(Cl)cc1 (stereo unspecified),4,50,2,6.25,2,25,25,25,2,25,12.5,25,6.25,25,,,,,
Cc1ccc(C2NC(c3ccc(C)cc3)C(C)C(=NOCc3ccccc3)C2C)cc1 (stereo unspecified),4,12.5,,25,,50,6.25,50,4,25,12.5,50,6.25,50,2,2,2,2,2
